From paper PMC12169615, “Fluorescent 4‑Nitrobenzo-2-oxa-1,3-diazole-Coupled Bile Acids as Probe Substrates of Hepatic and Intestinal Bile Acid Transporters of the Solute Carrier Families SLC10 and SLCO” (Journal of Medicinal Chemistry, 2025)
“And” between values parts separate entries of the source, which are not always exact repeats. Equal entries are not always repeated.

Assays:
[1] = logP(o/w), octanol/water partition; conditions: 1:1 mixture of water and 1-octanol, fluorescence detection or liquid scintillation; for logP: 1-octanol/water, LogP(o/w)
Procedure: 9 Membrane permeability of the 3-NBD-BA and logP(o/w) values. […] The lipophilic and hydrophilic phases were separated by centrifugation and both phases were analyzed by fluorescence detection or liquid scintillation, respectively.
All NBD-BA were diluted to 1 pM in STB, and […] and emission spectra were measured from 300 to 650 nm (Spark Multimode Microplate, Tecan, Männedorf, Switzerland). […] The [^3H]-CA was generously provided by Prof. Dr. Alan Hofmann, University of California (San Diego, United States).

human ASBT = biological target: T1, human ASBT (Homo sapiens, UniProt Q12908); assay: Quantitative uptake of 3-NBD-BA in carrier-expressing HEK293 cells (fluorescence reader); format: cell-based; set-up: stably transfected with the full open reading frames of human NTCP, ASBT, SOAT, OATP1B1, and OATP1B3; expressed in transfected cells; conditions: ASBT-HEK293, 25 μM, 37 °C, +Na+ vs -Na+
T1 sequence (Q12908 1-348): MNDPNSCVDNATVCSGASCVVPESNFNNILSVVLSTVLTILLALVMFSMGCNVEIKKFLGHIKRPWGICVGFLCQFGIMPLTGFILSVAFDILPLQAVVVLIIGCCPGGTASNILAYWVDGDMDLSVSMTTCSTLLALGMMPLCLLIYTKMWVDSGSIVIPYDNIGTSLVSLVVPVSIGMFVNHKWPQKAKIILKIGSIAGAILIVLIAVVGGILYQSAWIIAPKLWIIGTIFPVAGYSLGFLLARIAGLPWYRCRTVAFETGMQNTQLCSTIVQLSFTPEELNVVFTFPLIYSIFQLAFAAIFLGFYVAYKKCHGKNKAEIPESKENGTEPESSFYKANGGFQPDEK
Procedure: (§1) For quantification of the transport activity of the synthesized NBD-BA, all cell lines were seeded on 96 well plates and transport experiments were performed under the same control conditions (-Na^+ control for the SLC10 carriers and nontransfected HEK293 cells for the OATP carriers) as before (Figure ). For each NBD-BA, a substrate concentration of 25 μM was used, and the uptake phase was terminated after 10 min of incubation at 37 °C. […] The transport ratios ranged from 3-fold to 39-fold. In direct comparison, 3α-NBD-TCA (14d) and 3α-NBD-GCA (16d) were transported better than their 3β-analogs 3β-NBD-TCA (14a) and 3β-NBD-GCA (16a), respectively, clearly pointing to a preference for the α-position over the β-position of the 3-NBD-label. In direct comparison between the taurine- or glycine-conjugation of the respective NBD-BA, there was a clear preference for 3α-NBD-GCA (16d) over 3α-NBD-TCA (14d), at least for NTCP and mAsbt, pointing to a favorable substrate recognition for glycine-conjugated NBD-BA.
(§2) 5 Quantitative uptake experiments with the 3-NBD-BA in HEK293 cells stably expressing the human carriers NTCP, ASBT, SOAT, OATP1B1, and OATP1B3, or the mouse carriers mNtcp and mAsbt. For the SLC10 carriers, all transport experiments were performed in the presence (filled bars) and the absence (hatched bars) of sodium. For the OATP carriers, uptake into carrier-expressing cells (filled bars) was compared to uptake into non-carrier-expressing HEK293 cells (hatched bars). All cell lines were incubated at 37 °C for 10 min with the indicated 3-NBD-BA at 25 μM. Then, cells were washed with PBS and subjected to fluorescence detection. The following fluorescent BA were analyzed: 3α-NBD-TCA (14d), 3β-NBD-TCA (14a), 3α-NBD-GCA (16d), 3β-NBD-GCA (16a), 3β-NBD-TCDCA (14b), 3β-NBD-CDCA (6b), 3β-NBD-DCA (6c), 3α-NBD-CA (6d), and 3β-NBD-CA (6a). Data represent means ± SD of triplicate determinations of representative experiments. […] RFU, relative fluorescence units. TEXT PRINTED IN THE PICTURE: 3α-NBD-TCA (14d): NTCP: 9 X; mNtcp: 30 X; ASBT: 2 X; mAsbt: 14 X | 3ß-NBD-TCA (14a): NTCP: 12 X; mNtcp: 20 X; mAsbt: 18 X | 3α-NBD-GCA (16d): NTCP: 27 X; mNtcp: 26 X; ASBT: 3 X; mAsbt: 39 X | 3ß-NBD-GCA (16a): NTCP: 15 X; mNtcp: 14 X; mAsbt: 5 X | 3ß-NBD-TCDCA (14b): NTCP: 5 X; mNtcp: 3 X; mAsbt: 4 X | 3ß-NBD-CDCA (6b): mNtcp: < 2 X; ASBT: < 2 X; mAsbt: < 2 X; OATP1B1: < 2 X; OATP1B3: < 2 X | 3ß-NBD-DCA (6c): mNtcp: < 2 X; ASBT: < 2 X; mAsbt: < 2 X | 3α-NBD-CA (6d): mNtcp: 2 X; mAsbt: 4 X | 3ß-NBD-CA (6a): NTCP: 2 X; mNtcp: 2 X; mAsbt: 2 X DOUBTS OF THE COPYIST ABOUT THIS PICTURE: The picture prints no panel letters, so the chart titles (NTCP, mNtcp, ASBT, mAsbt, OATP1B1, OATP1B3) are written in front of the values as the target. / Substance labels: the sign after '3' is printed like 'ß' and may be meant as 'β'. / The 'ns' marks and significance asterisks were left out as statistics. The SOAT chart prints only 'ns'.

mouse mAsbt = biological target: T2, mouse mAsbt (Mus musculus, UniProt P70172); assay: as above; format: cell-based; set-up: stably transfected with the full open reading frames of human NTCP, ASBT, SOAT, OATP1B1, and OATP1B3 as well as mouse mNtcp and mAsbt; expressed in transfected cells; conditions: mAsbt-HEK293, 25 μM, 37 °C, +Na+ vs -Na+
T2 sequence (P70172 1-348): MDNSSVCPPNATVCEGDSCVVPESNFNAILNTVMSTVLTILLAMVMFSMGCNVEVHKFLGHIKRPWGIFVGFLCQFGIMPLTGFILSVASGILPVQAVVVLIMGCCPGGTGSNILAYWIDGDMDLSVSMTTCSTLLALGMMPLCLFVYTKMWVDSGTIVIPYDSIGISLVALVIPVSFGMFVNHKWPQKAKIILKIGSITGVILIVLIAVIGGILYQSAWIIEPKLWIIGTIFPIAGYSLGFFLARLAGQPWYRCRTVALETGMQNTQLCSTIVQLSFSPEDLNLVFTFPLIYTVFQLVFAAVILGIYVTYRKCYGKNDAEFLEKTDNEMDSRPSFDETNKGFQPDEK
Procedure: as §1, §2

Compound	logP [1]	Specific transport ratio ASBT (25µM/10 min uptake) (human ASBT)	Specific transport ratio mAsbt (25µM/10 min uptake) (mouse mAsbt)	LogP(o/w) [1]
C[C@H](CCC(=O)NCC(=O)O)[C@H]1CC[C@H]2[C@@H]3[C@H](O)C[C@@H]4C[C@@H](Nc5ccc([N+](=O)[O-])c6nonc56)CC[C@]4(C)[C@H]3C[C@H](O)[C@]12C [16a]	-0.01	not transported and ns	5x x-fold	–
12α-Hydroxy-3β-[(7-nitro-2,1,3-benzoxadiazol-4-yl)amino]-5β-cholan-24-oate [6c]	–	<2x x-fold	<2x x-fold	2.147
C[C@H](CCC(=O)NCC(=O)O)[C@H]1CC[C@H]2[C@@H]3[C@H](O)C[C@@H]4C[C@H](Nc5ccc([N+](=O)[O-])c6nonc56)CC[C@]4(C)[C@H]3C[C@H](O)[C@]12C [16d]	0.462	–	39x x-fold	–
C[C@H](CCC(=O)NCCS(=O)(=O)[O-])[C@H]1CC[C@H]2[C@@H]3[C@H](O)C[C@@H]4C[C@H](Nc5ccc([N+](=O)[O-])c6nonc56)CC[C@]4(C)[C@H]3C[C@H](O)[C@]12C.[Na+] [14d]	0.03	–	14x x-fold	0.027
7α-Hydroxy-3β-[(7-nitro-2,1,3-benzoxadiazol-4-yl)amino]-5β-cholan-24-oate [6b]	–	<2x x-fold	<2x x-fold	–
C[C@H](CCC(=O)O)[C@H]1CC[C@H]2[C@@H]3[C@H](O)C[C@@H]4C[C@H](Nc5ccc([N+](=O)[O-])c6nonc56)CC[C@]4(C)[C@H]3C[C@H](O)[C@]12C [6d, 7α,12α-Dihydroxy-3α-[(7-nitro-2,1,3-benzoxadiazol-4-yl)amino]-5β-cholan-24-oate]	2.8	ns	4 x-fold and 4x x-fold	–
C[C@H](CCC(=O)O)[C@H]1CC[C@H]2[C@@H]3[C@H](O)C[C@@H]4C[C@@H](Nc5ccc([N+](=O)[O-])c6nonc56)CC[C@]4(C)[C@H]3C[C@H](O)[C@]12C [6a, 7α,12α-Dihydroxy-3β-[(7-nitro-2,1,3-benzoxadiazol-4-yl)amino]-5β-cholan-24-oate]	> 2	ns	2 x-fold and 2x x-fold	–
C[C@H](CCC(=O)NCCS(=O)(=O)[O-])[C@H]1CC[C@H]2[C@@H]3[C@H](O)C[C@@H]4C[C@@H](Nc5ccc([N+](=O)[O-])c6nonc56)CC[C@]4(C)[C@H]3C[C@H](O)[C@]12C.[Na+] [14a]	0.14	not transported and ns	18x x-fold	–
